According to the METLIN SMRT retention time set (Domingo-Almenara et al. 2019):

Experiment: gradient 5% acetonitrile 3 min, to 50% in 2 min, to 85% in 15 min, held 3 min, 100 µL/min
Details: column: Zorbax Extend-C18 2.1 x 50 mm; eluents: water / acetonitrile, 0.1% formic acid
Method in brief: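 Over 3 months, pure standards in mixtures of ~100 molecules were run by HPLC coupled to a quadrupole time-of-flight mass spectrometer in positive and negative ionization mode. The column was a Zorbax Extend-C18 (2.1 × 50 mm, 1.8 μm) at 100 μL/min, eluted with water and acetonitrile each holding 0.1% formic acid, with 40 μL dead and 900 μL dwell volumes. Retention time was determined from adduct peaks chosen by software and checked manually.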

Row | SMILES | RP-LC retention time
1 | Cc1ccc(Nc2c(-c3cccc(Cl)c3)nc3ccc(C)cn23)cc1 | 804 s
2 | O=C(NC1CCCCC1)N1CCC(c2noc(-c3ccncc3)n2)C1 (stereo unspecified) | 727 s
3 | O=C(C1CCN(c2cc(N3CCOCC3)ncn2)CC1)N1CCN(c2ccccc2)CC1 | 640 s
4 | COc1ccccc1C(=O)NC1(C(F)(F)F)C(=O)N(C2CCCC2)C(C)=C1C(C)=O (stereo unspecified) | 1000 s
5 | N#Cc1ccc(N2C=C(C(=O)N3CCOCC3)S(=O)(=O)c3ccc(Cl)cc32)cc1 | 764 s
6 | CCn1c(CC2C(=O)Nc3ccc(Br)cc32)nc2ccccc2c1=O (stereo unspecified) | 825 s
7 | Cc1ccc(NC(=O)c2c(O)c3cccnc3n(-c3ccc(F)cc3)c2=O)c(F)c1 | 1330 s
8 | COC(=O)Cn1c(=O)c2c(nc3n2CCCN3c2ccc(Cl)cc2)n(C)c1=O | 868 s
9 | CSc1nnc(Cn2c(=O)sc3ccccc32)n1-c1cccc(C(F)(F)F)c1 | 824 s
10 | CC(C)Cc1ccc(S(=O)(=O)N2CCc3c(c(CN4CCN(C)CC4)nn3C)C2)cc1 | 687 s
11 | O=C(c1cc(-c2ccncc2)n[nH]1)N1CCN(C(=O)C2(c3ccccc3)CC2)CC1 | 590 s
12 | C[C@H](NC(=O)[C@@H]1CCCN1C(=O)[C@@H]1CCCN1C(=O)[C@@H](O)[C@H](N)Cc1ccccc1)C(N)=O | 552 s
13 | O=C(Nc1ccccc1F)N1C[C@H]2C[C@H](C1)[C@H]1CCCC(=O)N1C2 | 627 s
14 | COc1ccc(Cl)cc1NC(=O)C(=O)c1cccn1C | 1140 s
15 | O=C(O)C1CCc2sc(C(=O)N3CCCCCC3)cc2C1 (stereo unspecified) | 746 s
16 | CC(=O)N1c2ccc(S(=O)(=O)N3CCCCC3)cc2CC1C(=O)NCCN1CCCCCC1 (stereo unspecified) | 639 s
17 | O=C(NC1CC1)c1ccccc1OC1CN(C2CCC2)C1 | 568 s

Row | SMILES | RP-LC retention time
18 | N#Cc1ccc(S(=O)(=O)N2CCOCCNC(=O)[C@H]3CCCC[C@H]32)cc1 | 747 s
19 | O=C1[C@H]2CNC[C@H]2C(=O)N1CCc1ccccc1 | 604 s
20 | Cc1oc(C2CCN(C(=O)Nc3cccc(Cl)c3C)CC2)nc1C(=O)N(C)C | 728 s
21 | COc1ccc(NS(=O)(=O)c2cc3c(s2)CCN(C(=O)C2CC2)C3)cc1OC | 734 s
22 | O=C(Cn1ncc2c(N3CCN(c4ccccn4)CC3)ncnc21)Nc1cccc(Cl)c1 | 638 s
23 | O=c1oc(-c2ccccc2)c(-c2ccccc2)c2ccccc12 | 1030 s
24 | Cc1cccc(OCCCn2c(CO)nc3ccccc32)c1 | 678 s
25 | O=C(Nc1nnc(SCc2cn3ccccc3n2)s1)C1(c2cccs2)CCCC1 | 611 s
26 | O=C(NCc1cccc(C(F)(F)F)c1)C1CCCN(c2nccnc2Oc2ccccc2)C1 (stereo unspecified) | 1040 s
27 | CC(=O)c1ccc(NC(=O)c2[nH]c3cc(C)sc3c2CN2CCCC2)cc1 | 665 s
28 | COCC(C)(O)CNC(=O)c1cc(Cl)ccc1Cl (stereo unspecified) | 657 s
29 | COC(=O)C1=CN(c2cc(Cl)c(OC)cc2OC)c2cc(F)ccc2S1(=O)=O | 918 s
30 | O=C(Nc1ccc(Br)cc1F)C1CCCN(c2cc(-n3cccn3)ncn2)C1 (stereo unspecified) | 967 s
31 | CCOC(=O)COc1cc(-c2ccccc2)nc2ccc(NC(=O)COc3ccc(F)cc3)cc12 | 868 s
32 | O=C(c1nnc(-c2ccc(S(=O)(=O)N3CCCCC3)cc2)o1)N1CCN(c2ccccc2)CC1 | 1080 s
33 | COC(=O)c1cnc2nc(C)ccc2c1Nc1ccc(Cl)c(F)c1 | 713 s
34 | O=C(CCCN1C(=O)C2C3C=CC(C3)C2C1=O)N1CCN(c2ccc(F)cc2)CC1 (stereo unspecified) | 800 s

More lines, now with the values ahead:

Row | RP-LC retention time | SMILES
35 | 1010 s | CC1CCN(c2cc(-c3noc(C(=O)N4CCc5ccccc5C4)n3)ccn2)CC1
36 | 971 s | CCOc1ccc(NC(=O)Cn2nc3cc(C)nc(-c4cccc(Cl)c4)n3c2=O)cc1
37 | 722 s | CC(C)C(=O)NCc1csc(C2CCN(C(=O)COc3ccccc3)CC2)n1
38 | 611 s | O=C(c1ccc2c(c1)OCO2)N1CCN(Cc2nc(C3CC3)cs2)CC1
39 | 827 s | CCn1ccc(C(=O)N2CCN(c3cc(-c4ccc(Cl)cc4)[nH]n3)CC2)n1
40 | 667 s | O=C(Cn1nc2c(N3CCCCCC3)nccn2c1=O)Nc1ccc2c(c1)OCO2
41 | 642 s | Cc1ccc(F)c(-n2nnc(C(=O)O)c2-c2cccnc2)c1
42 | 779 s | Cc1cc(C)n(-c2cc(SCC(=O)NCc3ccco3)ncn2)n1
43 | 624 s | CCOc1cc(-c2ccc(F)cc2)nc2ccc(C(=O)N3CCN(c4ccccn4)CC3)cc12
44 | 690 s | CCCNC(=O)c1cc(-c2ccncc2)cn1Cc1ccccc1C
45 | 616 s | CC1Cc2cc(-c3cc(CC(=O)NCc4ccco4)no3)ccc2O1 (stereo unspecified)
46 | 663 s | Cc1ccc(NC(=O)c2cc3c(s2)CN(C2CCCC2)C3)c(C)c1
47 | 983 s | CC(CNC(=O)c1cc2sccc2n1C)c1ccccc1 (stereo unspecified)
48 | 898 s | CC1=C(c2ccc(C)cc2)S(=O)(=O)N=C1N1CCCN(C(=O)c2cccc(C)c2)CC1
49 | 687 s | Cc1ccc(Cl)c(NC(=O)Cc2csc(C)n2)c1
50 | 615 s | O=C(c1ccc(F)c(F)c1)N1CCN(c2cc(-c3cccnc3)[nH]n2)CC1

Row | RP-LC retention time | SMILES
51 | 704 s | Cc1ccc(N2CC(NC(=O)NCc3cccs3)CC2=O)cc1C (stereo unspecified)
52 | 1010 s | CC(Cc1ccco1)NC(=O)c1cc(S(=O)(=O)N2CCCCCC2)ccc1Cl (stereo unspecified)
53 | 868 s | O=C(Cn1ccn2nc(-c3ccccc3)c(CO)c2c1=O)Nc1cc(F)ccc1Cl
54 | 966 s | CCc1ccc(N2C(=O)N(CC(=O)N3CCOc4ccc(C)cc43)C3CS(=O)(=O)CC32)cc1 (stereo unspecified)
55 | 1230 s | O=c1c2cc3c(cc2nc(SCc2nc(-c4ccc(Cl)cc4)no2)n1CC1CCCO1)OCO3 (stereo unspecified)
56 | 861 s | O=C(Nc1cccn2nc(C3CCC3)nc12)c1cccs1
57 | 645 s | Cc1cc(=O)n(CC(=O)Nc2ccc3c(c2)OCCO3)c(N2CCCCC2)n1
58 | 775 s | O=C(CNS(=O)(=O)c1ccc2c(c1)OCCO2)N1CCOC(c2ccccc2)C1 (stereo unspecified)
59 | 1000 s | COc1ccc(-c2noc(Cc3nnc(-c4cccc(F)c4)o3)n2)cc1F
60 | 800 s | Cc1cccc(Cn2c(CN3CCC(C(=O)NCCc4ccco4)CC3)cc3ccccc32)c1
61 | 994 s | Cc1ccc(-c2nc(C3CC(=O)N(c4ccc(Cl)cc4)C3)no2)c(C)c1 (stereo unspecified)
62 | 896 s | CCOC(=O)c1cc(-c2cccc(OC)c2OC)no1
63 | 765 s | CCC(C)NC(=O)Cn1nc(C)c2sc(-c3ccccc3)nc2c1=O (stereo unspecified)
64 | 1120 s | O=C(Nc1nc(-c2ccc(F)cc2)cs1)c1cccc(Br)c1
65 | 1040 s | Cc1ccc(CNC(=O)C2(C)CCCN(C(=O)Nc3cccc(Cl)c3)C2)cc1 (stereo unspecified)
66 | 780 s | COc1cccc(NC(=O)Cc2csc3nc(-c4ccc(OC)c(OC)c4)cn23)c1
